Experimental data taken from US11702402B2, “Small molecules that block proteasome-associated ubiquitin receptor RPN13 function and uses thereof” (DANA-FARBER CANCER INSTITUTE, INC., priority 2018, dated 2023).
“Also recorded” adds a separate entry of the source.

Columns and labels:
[1] = tested on: MM.1S cells; test: MM.1S cell viability (WST); conditions: for combination effect on viability (isobologram, CI): 48 hours, WST
Protocol: FIGS. 4A and 4B show multiple myeloma 1S (MM.1S) cells treated with RA190, WL40, and WL44 at the indicated concentrations for 24 hours. Wst-1 assay was used to test cell viability.
In FIG. 13B, multiple myeloma cells (MM.1S) were treated with RA190 or compound JQRA at the indicated concentrations for 72 hours, and the percentage of viable cells was measured.
Purified CD138^+ patient MM cells, which were treated with DMSO control or WL40 at indicated concentrations for 48 hours, followed by assessment for cell viability using CellTiter-Glo assay (mean±SD of triplicate cultures; p<0.001). […] Normal PBMCs from healthy donors were treated with DMSO control or WL40 at indicated concentrations for 48 hours, and then analyzed for cell viability using CellTiter-Glo assay (mean±SD of quadruplicate cultures). […] MM.1S cells were cultured with or without patient BMSCs in the presence or absence of WL40 for 48 hours, and cell proliferation was measured by WST assay (mean±SD; n=3; p<0.0001). […] MM.1S cells were cultured with or without patient pDCs in the presence or absence of WL40 for 48 hours, and cell proliferation was measured by WST assay (mean±SD; n=3; p<0.0001).

[2] = tested on: human MM.1S MM tumors; test: Human MM xenograft model; format: in vivo; conditions: for host survival / tumor growth: MM.1S-bearing mice, i.p., WL40 14.7 μM/kg, RA190 26.8 μM/kg; for host survival: twice weekly; for tumor growth: twice weekly for 18 days
Protocol: FIG. 23B are Kaplan-Meier plots which show survival of mice. […] The lysates were subjected to the immunoblot analysis using anti-polyubiquitin, anti-cleaved-caspase-8, or anti-β-actin Abs. FIG. 23D show tumor sections from the vehicle control, and WL40-treated mice that were stained with anti-polyubiquitin, Ki67, caspase-3 (cleaved form), and CD31 antibodies. Scale bar, 10 μm.
Animal model studies were performed as described previously.^32, 33, 36 Briefly, CB17 SCID mice were subcutaneously inoculated with 5.0×10^6 MM.1S cells. When tumors were measurable (100 mm^3) at approximately 3 weeks after MM-cell injection, mice (10 mice/group) were treated on a twice-weekly schedule with vehicle alone, WL40, or RA190. Mice were euthanized when tumor volume reached institutional limit (2000 mm^3). All animal experiments protocols were approved by and conformed to the relevant regulatory standards of the Institutional Animal Care and Use Committee at the Dana-Farber Cancer Institute.
Tumors were harvested from WL40-treated and control animals. Tumor sections were fixed and paraffin embedded for immunostaining to detect growth inhibition (Ki67), apoptosis (cleaved caspase-3), poly-ubiquitination (PolyU), and angiogenesis (CD31), as described previously.^32, 34 Tumor protein lysates from control vehicle- and WL40-treated mice were analyzed for caspase-8, poly-Ubiquitin or β-actin level using immunoblot analyses.
To fully understand the therapeutic potential of the RPN13 degrader, the in vivo efficacy of WL40 was evaluated using the human plasmacytoma xenograft mouse model.^3, 34 This model has been useful in validating novel anti-MM therapies bortezomib, carfilzomib, ixazomib, lenalidomide, and pomalidomide, which have translated to clinical trials and FDA approval.

[3] = molecular target: CRBN-DDB1 (Homo sapiens, UniProt Q96SW2); test: CRBN AlphaScreen (displacement of biotinylated-pomalidomide probe); format: binding; conditions: in vitro AlphaScreen; thalidomide and lenalidomide as positive controls
[4] = tested on: UPR proteins (BIP, PERK, phosphorylated eIF2α, calnexin); test: UPR protein immunoblot; format: cell-based, Human; conditions: ANBL6.BR (1 μM) and MM.1S (WL40 200 nM, RA190 300 nM)
[5] = tested on: Ub-tagged GFP that is constitutively targeted for proteasomal degradation; test: Ub-GFP (GFPu-1) reporter cell line immunoblot; format: cell-based; conditions: 16 hours
Protocol: Cell lysates were loaded on SDS-PAGE, transferred to PVDF membrane, then immunoblotted with anti-GFP, and anti beta-actin antibodies.
In FIG. 18, a reporter cell line expressing Ub-tagged GFP that is constitutively targeted for proteasomal degradation was treated with RA190 ([…]); and JQRA ([…]) for 16 hours. Cell lysates were loaded on SDS-PAGE, transferred to PVDF membrane, then immunoblotted with anti-GFP, and anti-alpha tubulin antibodies.
FIGS. 19A-19I show the exemplary design and characterization of exemplary Rpn13 degrader WL40. […] WL40 was created by linking the Rpn13 inhibitor RA190 to the IMiD thalidomide as a ligand for the CRBN E3 ligase via a PEG linker. […] FIG. 19C is a schematic cartoon for the novel AlphaScreen assay to measure the binding activity of inhibitor with RPN13 proteins. […] FIG. 19E depicts immunoblot analysis of multiple myeloma 1S (MM.1S) cells, which were treated with WL40 or RA190 at the indicated concentrations and time periods; protein lysates were subjected to the immunoblot analysis using anti-Rpn13 or anti-tubulin Abs. FIG. 19F depicts flow cytometry analysis of MM.1S cells, which were treated with DMSO control, WL40 (400 nM), or RA190 (500 nM) for 16 hours; cells were then washed and stained with Rpn13 Ab conjugated with AlexaFluor-647, followed by the flow cytometry analysis. Isotype Ab conjugated to AlexaFluor-647 was used as control for non-specific binding. Data was quantified using FACS Diva (BD Biosciences, USA) and FlowJo (FlowJo LLC, USA). FIG. 19G depicts immunoblot analysis of MM.1S-CRBN KO cells, which were treated with WL40 (400 nM) or RA190 (500 nM) for 16 hours; protein lysates were subjected to the immunoblot analysis using anti-Rpn13 or anti β-actin Abs. […]
To confirm that CRBN presence is a prerequisite for the function of WL40 in cells, CRBN-knockout (KO) MM.1S cells^27, 38 were utilized, and the effect of WL40 on Rpn13 degradation was examined. […] GFPu-1 cells were treated with WL40, and GFP levels were then analyzed using immunoblotting. […]

[6] = tested on: MM.1S CRBN KO cells; test: MM.1S CRBN KO cell viability; format: cell-based, Human
Description: FIGS. […] Wst-1 assay was used to test cell viability.
The experiment was repeated twice and JQRA concentration was increased (as indicated) at the second time.

[7] = tested on: multiple myeloma cell lines; test: Viability of a panel of multiple myeloma cell lines; format: cell-based, Human
Description: FIGS. […] Wst-1 assay was used to test cell viability. FIGS. 6A and 6B show the effect of exemplary bifunctional compounds WL40 and WL44 on multiple myeloma cell lines.

Chain of CRBN-DDB1 (Q96SW2 whole entry): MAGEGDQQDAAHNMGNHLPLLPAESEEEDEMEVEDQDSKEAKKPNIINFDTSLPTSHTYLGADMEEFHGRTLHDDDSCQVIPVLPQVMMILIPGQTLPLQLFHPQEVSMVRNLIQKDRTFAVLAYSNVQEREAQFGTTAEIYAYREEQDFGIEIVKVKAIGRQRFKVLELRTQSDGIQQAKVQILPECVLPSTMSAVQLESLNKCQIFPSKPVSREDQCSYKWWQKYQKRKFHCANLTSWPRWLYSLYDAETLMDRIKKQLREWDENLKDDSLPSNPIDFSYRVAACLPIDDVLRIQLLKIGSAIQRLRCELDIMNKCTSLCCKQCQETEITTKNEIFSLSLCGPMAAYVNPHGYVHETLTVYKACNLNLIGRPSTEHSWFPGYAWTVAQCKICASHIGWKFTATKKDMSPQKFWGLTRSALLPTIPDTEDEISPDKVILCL
Chain of CRBN-DDB1 (Q16531 whole entry partner): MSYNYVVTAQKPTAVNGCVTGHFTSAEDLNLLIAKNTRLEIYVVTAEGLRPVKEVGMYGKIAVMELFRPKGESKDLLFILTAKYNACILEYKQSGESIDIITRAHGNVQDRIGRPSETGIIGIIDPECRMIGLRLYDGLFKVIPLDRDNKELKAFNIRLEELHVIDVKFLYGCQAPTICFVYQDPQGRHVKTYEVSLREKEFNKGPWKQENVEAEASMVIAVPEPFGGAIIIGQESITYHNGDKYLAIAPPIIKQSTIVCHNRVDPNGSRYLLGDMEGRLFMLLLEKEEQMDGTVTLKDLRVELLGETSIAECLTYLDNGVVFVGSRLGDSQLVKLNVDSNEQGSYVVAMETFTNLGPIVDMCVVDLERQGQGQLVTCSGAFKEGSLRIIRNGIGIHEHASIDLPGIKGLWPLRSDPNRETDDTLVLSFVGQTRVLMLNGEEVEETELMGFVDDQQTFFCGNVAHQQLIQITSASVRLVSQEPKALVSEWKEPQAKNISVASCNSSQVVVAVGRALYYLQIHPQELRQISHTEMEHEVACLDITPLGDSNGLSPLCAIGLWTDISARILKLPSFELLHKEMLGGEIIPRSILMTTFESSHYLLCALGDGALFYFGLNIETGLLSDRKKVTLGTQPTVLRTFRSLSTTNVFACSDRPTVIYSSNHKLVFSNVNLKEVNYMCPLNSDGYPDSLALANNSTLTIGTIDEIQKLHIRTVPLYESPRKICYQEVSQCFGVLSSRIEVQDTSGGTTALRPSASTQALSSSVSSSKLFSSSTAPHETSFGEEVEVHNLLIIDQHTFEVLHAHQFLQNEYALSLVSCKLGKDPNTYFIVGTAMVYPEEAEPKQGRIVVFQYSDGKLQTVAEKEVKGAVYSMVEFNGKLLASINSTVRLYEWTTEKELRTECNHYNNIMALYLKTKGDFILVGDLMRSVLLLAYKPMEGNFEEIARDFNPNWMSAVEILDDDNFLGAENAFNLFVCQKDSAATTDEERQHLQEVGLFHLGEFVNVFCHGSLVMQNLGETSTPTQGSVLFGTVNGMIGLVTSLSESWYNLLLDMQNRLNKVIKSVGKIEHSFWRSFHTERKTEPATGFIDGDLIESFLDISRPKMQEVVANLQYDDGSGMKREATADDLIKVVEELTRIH

## Cl.N[C@@H](Cc1ccccc1)C(=O)N1C/C(=C/c2ccc(Cl)c(Cl)c2)C(=O)/C(=C\c2ccc(Cl)c(Cl)c2)C1 [RA190, reference compound]
[1]; 72 hours
  cytotoxicity (percentage of viable cells): stronger MM cytotoxicity compared to exemplary compound JQRA; also recorded: more robust MM cytotoxicity
[2]
  host survival: extends mice survival
  tumor growth: attenuates MM tumor progression
[3]
  CRBN binding: did not show any binding to CRBN
[4]
  induction of UPR signaling: delayed kinetics and to a lesser extent than Rpn13 degrader WL40
[5]; 312 μM, 625 μM, 1250 μM, 2500 μM, 5000 μM
  Ub-GFP levels / proteasome function (immunoblot): blocks proteasome function
[6]; CRBN-KO cells, 72 hours
  cytotoxicity (percentage of viable cells): more robust MM cytotoxicity
[7]; different multiple myeloma cell lines, 72 hours
  cytotoxicity (percentage of viable cells): stronger cytotoxicity than JQRA

## O=C1CCC(N2C(=O)c3cccc(NCCOCCOCCOCCC(=O)N[C@@H](Cc4ccccc4)C(=O)N4C/C(=C\c5ccc(Cl)c(Cl)c5)C(=O)/C(=C/c5ccc(Cl)c(Cl)c5)C4)c3C2=O)C(=O)N1 (stereo partly shown) [WL40]
[1]; 24 hours, Wst-1
  cell viability IC50: lower IC50 compared to compound RA190
[1]; WL40 plus bortezomib
  combination effect on viability (isobologram, CI): synergistic anti-MM activity
[1]; WL40 plus lenalidomide
  combination effect on viability (isobologram, CI): synergistic anti-MM activity
[1]; WL40 plus pomalidomide
  combination effect on viability (isobologram, CI): synergistic anti-MM activity
[2]
  host survival: prolongs host survival
  tumor growth: inhibits xenografted human MM cell growth; also recorded: more potent in vivo anti-MM activity
[2]; WL40-treated mice
  tolerability: well tolerated
[2]; WL40-treated mice (data not shown)
  body weight loss: no significant weight loss
[2]; relative to tumors from control mice
  PolyUb proteins in harvested tumors: increased accumulation of PolyUb proteins
[2]; tumor sections
  angiogenesis in harvested tumors (CD31): blocks angiogenesis
  apoptosis in harvested tumors (cleaved caspase-3): induces apoptosis
  proliferation in harvested tumors (Ki67): decreases proliferation
[3]
  CRBN binding: interacts with the E3 ubiquitin receptor CRBN
[4]
  induction of UPR signaling: rapid and robust induction of UPR proteins
[5]; WL40, WL44 0.5-2.0 μM, RA190 1 μM
  Ub-GFP levels / proteasome function (immunoblot): block proteasome function; also recorded: increases GFP levels
[6]; MM.1S-CRBN KO, 24 hours, Wst-1
  cell viability: decrease cell viability
[7]; multiple myeloma cell lines, 48 hours, Wst-1
  cell viability IC50: high IC50 in several cell lines
